Experimental data reported in patent US12121522B2, “Methods of treating cancer with an mTOR inhibitor” (Revolution Medicines, Inc., priority 2022, dated 2024).
“And” between values parts separate entries of the source, which are not always exact repeats. Identical values can stand only once.

Legend:
[1] = system: BLC1521 TSC1 protein-negative bladder cancer; test: BLC1521 bladder cancer xenograft; format: in vivo, mouse
Procedure: The antitumor activity of RMC-5552 as a single agent against tumors predicted to be dependent on the mTOR pathway and/or bearing specific PI3K/mTOR pathway-activating mutations (i.e., PIK3CA^mut, phosphatase and tensin homolog [PTEN^LOF], or co-mutation of both and tuberous sclerosis complex [TSC^LOF]) was evaluated in selected CDX and/or PDX models
Table 1. RMC-5552 was administered IP once weekly at 1, 3, 10, and 30 mg/kg. In the breast cancer MCF7 PIK3CA^[…] model, a higher dose of 50 mg/kg once weekly and an alternate dose regimen of 30 mg/kg every 10 days were also evaluated.

Mouse plasma exposure = format: in vivo; settings: fu 0.001-0.004
[2] = system: advanced relapsed/refractory solid tumors; test: Clinical efficacy (RECIST v1.1), study RMC-5552-001; format: in vivo, human
Procedure: Refer to FIG. 7 for a waterfall plot of best response in subjects treated at majority dose of 6 mg or 8 mg IV weekly (one hour infusion).
Subjects were evaluated at doses of 6 mg and higher. […] One patient discontinued treatment due to clinical progression without post-baseline scans. Three patients experienced radiographic progressive disease (PD).

[3] = Clinical plasma PK, study RMC-5552-001; format: in vivo, human
Text: The plasma PK of RMC-5552 in subjects was characterized after single- and repeat-dose administration via IV infusion. […] Sparse PK samples were collected on other visit days as indicated in the clinical study protocol, including End of Infusion (EOI) samples on Cycle 1 Day 8 (C1D8), Cycle 2 Day 1 (C2D1), Cycle 3 Day 1 (C3D1), and Cycle 4 Day 1 ([…]) to approximate maximum concentration (Cmax). The plasma PK of RMC-5552 in subjects was characterized after single- and repeat dose administration via intravenous (IV) infusion. […] Sparse PK samples were collected on other visit days as indicated in the clinical study protocol, including EOI samples on C1D8, C2D1, C3D1, and […] to approximate Cmax. […] AUC0-last value was not calculated on C1D8, C2D1, C3D1, or […] due to limited PK time points (pre-dose and EOI).

[4] = 13 efficacy-evaluable patients at ≥6 mg
[5] = 27 efficacy-evaluable subjects, majority doses 6 mg or 8 mg IV weekly
[6] = endometrial PIK3CA, PTEN, TSC2, 8 mg QW
[7] = uterine CaSarc TSC1 LOF, 10 mg single dose, 6 mg QW

CO[C@H]1C[C@@H]2CC[C@@H](C)[C@@](O)(O2)C(=O)C(=O)N2CCCC[C@H]2C(=O)O[C@H]([C@H](C)C[C@@H]2CC[C@@H](OC(=O)NCCOCCOCCOCCOCCOCCOCCOCCOCCC(=O)N3CCc4cc(Cn5nc(-c6ccc7oc(N)nc7c6)c6c(N)ncnc65)ccc4C3)[C@H](OC)C2)C[C@@H](O)[C@H](C)/C=C(\C)[C@@H](O)[C@@H](OC)C(=O)[C@H](C)C[C@H](C)/C=C/C=C/C=C/1C [RMC-5552]
TGI ([1]; 3 mg/kg IP QW): 94% | tumor regression ([1]; 10 mg/kg IP QW): 45% regression | Unbound AUC0-last, mean mouse exposure (Mouse plasma exposure; 1 mg/kg): 0.021 to 0.084 µM·h | Unbound Cmax, mean mouse exposure (Mouse plasma exposure; 1 mg/kg): 2 to 8 nM | Unbound AUC0-last, mean mouse exposure (Mouse plasma exposure; 3 mg/kg): 0.053 to 0.21 µM·h | Unbound Cmax, mean mouse exposure (Mouse plasma exposure; 3 mg/kg): 3.7 to 14.7 nM | best response of stable disease (SD), subjects [2, 4]: 8 | confirmed partial response (PR), subjects [2, 4]: 1 | discontinued due to clinical progression without post-baseline scans, patients [2, 4]: One | radiographic progressive disease (PD), patients [2, 4]: Three | Disease Control Rate (DCR) [2, 5]: 74.1% | subjects with confirmed partial response [2, 5]: one | subjects with stable disease as best response [2, 5]: 19 | RECIST reduction ([2]; 67F NSCLC STK11, TSC2, KRAS L19F, 8 mg QW): 4% reduction | RECIST reduction ([2]; 76F NSCLC BRAF fusion, 10 mg single dose, 6 mg QW): 22% | reduction in sum of target lesions (RECIST), subject with confirmed PR ([2]; H&N (salivary gland) cancer, PTEN mutation, 12 mg single dose then 6 mg QW): 77.6% and 77% | subjects with Partial Response (PR) ([2]; cancer with PTEN mutation): 1 | CA125, nadir [2, 6]: to nadir of 254; 9+ months | CA125, peak [2, 6]: CA125 from peak of 1465 | RECIST reduction [2, 6]: 7% reduction | subjects with Partial Response (PR) ([2]; head and neck cancer, PTEN mutation): 1 | RECIST increase (mixed) ([2]; ovarian CA TSC1 LOF, 6 mg QW): 19% increase | reduction in CA125 ([2]; ovarian CA TSC1 LOF, 6 mg QW): 72% reduction in CA125 | reduction in FDG avidity by PET/CT ([2]; ovarian CA TSC1 LOF, 6 mg QW): Strong: 50% reduction in | reduction in tumor size, 1 subject ([2]; salivary gland cancer): 63% | RECIST reduction [2, 7]: 4.4% | reduction in CA125 [2, 7]: Strong: 37% reduction in | Mean Accumulation Ratio (AUC0-last on D15/D1) ([3]; 1.6 mg): 2.4 | Cmax ([3]; 1.6 mg 1-h IV inf, C1D1): 21.6 nM | Mean AUC0-last ([3]; 1.6 mg, C1D1): 0.0297 µM·h | Mean Dose Normalized AUC0-last ([3]; 1.6 mg, C1D1): 18.6 nM·h/mg | Mean Unbound AUC0-last ([3]; 1.6 mg, C1D1): 0.0017 µM·h | Mean Unbound Cmax ([3]; 1.6 mg, C1D1): 1.2 nM | Cmax ([3]; 1.6 mg, C1D15): 35.3 nM | Mean AUC0-last ([3]; 1.6 mg, C1D15): 0.0555 µM·h | Mean Dose Normalized AUC0-last ([3]; 1.6 mg, C1D15): 34.7 nM·h/mg | Mean Unbound AUC0-last ([3]; 1.6 mg, C1D15): 0.0032 µM·h | Mean Unbound Cmax ([3]; 1.6 mg, C1D15): 2.0 nM | Cmax ([3]; 1.6 mg, C2D1 (EOI)): 24.7 nM | Mean Unbound Cmax ([3]; 1.6 mg, C2D1 (EOI)): 1.4 nM | Mean Accumulation Ratio (AUC0-last on D15/D1) ([3]; 3 mg): 2.1 | Cmax ([3]; 3 mg 1-h IV inf, C1D1): 32 nM | Mean AUC0-last ([3]; 3 mg, C1D1): 0.0439 µM·h | Mean Dose Normalized AUC0-last ([3]; 3 mg, C1D1): 14.6 nM·h/mg | Mean Unbound AUC0-last ([3]; 3 mg, C1D1): 0.0025 µM·h | Mean Unbound Cmax ([3]; 3 mg, C1D1): 1.8 nM | Cmax ([3]; 3 mg, C1D15): 67.5 nM | Mean AUC0-last ([3]; 3 mg, C1D15): 0.0875 µM·h | Mean Dose Normalized AUC0-last ([3]; 3 mg, C1D15): 29.2 nM·h/mg | Mean Unbound AUC0-last ([3]; 3 mg, C1D15): 0.005 µM·h | Mean Unbound Cmax ([3]; 3 mg, C1D15): 3.8 nM | Cmax ([3]; 3 mg, C2D1 (EOI)): 74.2 nM | Mean Unbound Cmax ([3]; 3 mg, C2D1 (EOI)): 4.2 nM | Mean Accumulation Ratio (AUC0-last on D15/D1) ([3]; 6 mg): 1.6 | Cmax ([3]; 6 mg 1-h IV inf, C1D1): 101 nM | Mean AUC0-last ([3]; 6 mg, C1D1): 0.137 µM·h | Mean Dose Normalized AUC0-last ([3]; 6 mg, C1D1): 22.1 nM·h/mg | Mean Unbound AUC0-last ([3]; 6 mg, C1D1): 0.0078 µM·h | Mean Unbound Cmax ([3]; 6 mg, C1D1): 5.8 nM | Mean t1/2 ([3]; 6 mg, C1D1): 8.1 h | Unbound AUC0-last (Table 3) ([3]; 6 mg, C1D1): 0.0078 µM·h | Unbound Cmax (Table 3) ([3]; 6 mg, C1D1): 5.6 nM | Cmax ([3]; 6 mg, C1D8 (EOI)): 150 nM | Mean Unbound Cmax ([3]; 6 mg, C1D8 (EOI)): 8.5 nM | Cmax ([3]; 6 mg, C1D15): 155 nM | Mean AUC0-last ([3]; 6 mg, C1D15): 0.219 µM·h | Mean Dose Normalized AUC0-last ([3]; 6 mg, C1D15): 36.6 nM·h/mg | Mean Unbound AUC0-last ([3]; 6 mg, C1D15): 0.0125 µM·h | Mean Unbound Cmax ([3]; 6 mg, C1D15): 8.9 nM | Mean t1/2 ([3]; 6 mg, C1D15): 8.2 h | Unbound AUC0-last (Table 3) ([3]; 6 mg, C1D15): 0.0121 µM·h | Unbound Cmax (Table 3) ([3]; 6 mg, C1D15): 8.7 nM | Cmax ([3]; 6 mg, C2D1 (EOI)): 159 nM | Mean Unbound Cmax ([3]; 6 mg, C2D1 (EOI)): 9.1 nM | Cmax ([3]; 6 mg, C3D1 (EOI)): 187 nM | Mean Unbound Cmax ([3]; 6 mg, C3D1 (EOI)): 10.7 nM | Cmax ([3]; 6 mg, C4D1 (EOI)): 220 nM | Mean Unbound Cmax ([3]; 6 mg, C4D1 (EOI)): 12.5 nM | Mean Accumulation Ratio (AUC0-last on D15/D1) ([3]; 8 mg): 2.6 | Cmax ([3]; 8 mg 1-h IV inf, C1D1): 152 nM | Mean AUC0-last ([3]; 8 mg, C1D1): 0.219 µM·h | Mean Dose Normalized AUC0-last ([3]; 8 mg, C1D1): 27.4 nM·h/mg | Mean Unbound AUC0-last ([3]; 8 mg, C1D1): 0.0125 µM·h | Mean Unbound Cmax ([3]; 8 mg, C1D1): 8.6 nM | Mean t1/2 ([3]; 8 mg, C1D1): 11.4 h | Unbound AUC0-last (Table 3) ([3]; 8 mg, C1D1): 0.0117 µM·h | Unbound Cmax (Table 3) ([3]; 8 mg, C1D1): 8.6 nM | Cmax ([3]; 8 mg, C1D8 (EOI)): 242 nM | Mean Unbound Cmax ([3]; 8 mg, C1D8 (EOI)): 13.8 nM | Cmax ([3]; 8 mg, C1D15): 340 nM | Mean AUC0-last ([3]; 8 mg, C1D15): 0.466 µM·h | Mean Dose Normalized AUC0-last ([3]; 8 mg, C1D15): 58.3 nM·h/mg | Mean Unbound AUC0-last ([3]; 8 mg, C1D15): 0.0266 µM·h | Mean Unbound Cmax ([3]; 8 mg, C1D15): 19.4 nM | Mean t1/2 ([3]; 8 mg, C1D15): 10.6 h | Unbound AUC0-last (Table 3) ([3]; 8 mg, C1D15): 0.0266 µM·h | Unbound Cmax (Table 3) ([3]; 8 mg, C1D15): 20.1 nM | Cmax ([3]; 8 mg, C2D1 (EOI)): 282 nM | Mean Unbound Cmax ([3]; 8 mg, C2D1 (EOI)): 16.1 nM | Cmax ([3]; 8 mg, C3D1 (EOI)): 295 nM | Mean Unbound Cmax ([3]; 8 mg, C3D1 (EOI)): 16.8 nM | Cmax ([3]; 8 mg, C4D1 (EOI)): 208 nM | Mean Unbound Cmax ([3]; 8 mg, C4D1 (EOI)): 11.8 nM | Cmax ([3]; 10 mg 2-h IV inf, C1D1): 115 nM | Mean Accumulation Ratio (AUC0-last on D15/D1) ([3]; 10 mg 2-h inf): 1.7 | Mean AUC0-last ([3]; 10 mg 2-h inf, C1D1): 0.366 µM·h | Mean Dose Normalized AUC0-last ([3]; 10 mg 2-h inf, C1D1): 36.6 nM·h/mg | Mean Unbound AUC0-last ([3]; 10 mg 2-h inf, C1D1): 0.0209 µM·h | Mean Unbound Cmax ([3]; 10 mg 2-h inf, C1D1): 6.6 nM | Mean t1/2 ([3]; 10 mg 2-h inf, C1D1): 13.5 h | Cmax ([3]; 10 mg 2-h inf, C1D15): 181 nM | Mean AUC0-last ([3]; 10 mg 2-h inf, C1D15): 0.527 µM·h | Mean Dose Normalized AUC0-last ([3]; 10 mg 2-h inf, C1D15): 52.7 nM·h/mg | Mean Unbound AUC0-last ([3]; 10 mg 2-h inf, C1D15): 0.03 µM·h | Mean Unbound Cmax ([3]; 10 mg 2-h inf, C1D15): 10.3 nM | Mean t1/2 ([3]; 10 mg 2-h inf, C1D15): 4.2 h | Cmax ([3]; 10 mg 2-h inf, C2D1): 290 nM | Mean Unbound Cmax ([3]; 10 mg 2-h inf, C2D1): 16.5 nM | Unbound AUC0-last (Table 3) ([3]; 10 mg, C1D1, N=2): 0.0142 µM·h | Unbound Cmax (Table 3) ([3]; 10 mg, C1D1, N=2): 11 nM | Cmax ([3]; 12 mg 1-h IV inf, C1D1): 396 nM | Mean AUC0-last ([3]; 12 mg, C1D1): 0.49 µM·h | Mean Dose Normalized AUC0-last ([3]; 12 mg, C1D1): 40.9 nM·h/mg | Mean Unbound AUC0-last ([3]; 12 mg, C1D1): 0.028 µM·h | Mean Unbound Cmax ([3]; 12 mg, C1D1): 22.6 nM | Mean t1/2 ([3]; 12 mg, C1D1): 8.3 h | Unbound AUC0-last (Table 3) ([3]; 12 mg, C1D1, N=2): 0.0282 µM·h | Unbound Cmax (Table 3) ([3]; 12 mg, C1D1, N=2): 22.6 nM | exposure (Cmax and AUC0-last) on C1D15 relative to C1D1 ([3]; weekly repeat dosing, 1.6 to 8 mg): about 2 fold
